The NIST ThermoML archive (doi:10.1016/j.jct.2007.04.005)
Numbers after ± are expanded uncertainties.

Assay: xn = mol fraction of the nth substance listed
Details: 298.15 K, Liquid

Q: What does the source list for CCCCCCCCC [nonane] + C1CCCCC1?
A: mass density (100 kPa, x2 = 0): 713.6 ± 0.7 kg/m3; mass density (100 kPa, x2 = 0.09303): 716.6 ± 0.7 kg/m3; mass density (100 kPa, x2 = 0.2009): 720.5 ± 0.7 kg/m3; mass density (100 kPa, x2 = 0.3051): 724.8 ± 0.6 kg/m3; mass density (100 kPa, x2 = 0.417): 729.9 ± 0.6 kg/m3; mass density (100 kPa, x2 = 0.512): 734.6 ± 0.6 kg/m3; mass density (100 kPa, x2 = 0.5996): 739.8 ± 0.6 kg/m3; mass density (100 kPa, x2 = 0.7052): 746.6 ± 0.6 kg/m3; mass density (100 kPa, x2 = 0.7993): 753.9 ± 0.6 kg/m3; mass density (100 kPa, x2 = 0.9039): 763.1 ± 0.5 kg/m3; mass density (101 kPa, x2 = 0): 713.86 ± 0.67 kg/m3; mass density (101 kPa, x2 = 0.1022): 717.19 ± 0.65 kg/m3; mass density (101 kPa, x2 = 0.1548): 719.05 ± 0.64 kg/m3; mass density (101 kPa, x2 = 0.2009): 720.75 ± 0.64 kg/m3; mass density (101 kPa, x2 = 0.2591): 723.01 ± 0.63 kg/m3; mass density (101 kPa, x2 = 0.3306): 726.01 ± 0.61 kg/m3; mass density (101 kPa, x2 = 0.4003): 729.17 ± 0.6 kg/m3; mass density (101 kPa, x2 = 0.4596): 732.07 ± 0.59 kg/m3; mass density (101 kPa, x2 = 0.5321): 735.92 ± 0.58 kg/m3; mass density (101 kPa, x2 = 0.612): 740.61 ± 0.57 kg/m3; mass density (101 kPa, x2 = 0.6649): 744.01 ± 0.56 kg/m3; mass density (101 kPa, x2 = 0.7224): 748.02 ± 0.55 kg/m3; mass density (101 kPa, x2 = 0.8047): 754.4 ± 0.53 kg/m3; mass density (101 kPa, x2 = 0.8686): 759.98 ± 0.52 kg/m3; mass density (101 kPa, x2 = 0.9405): 767.1 ± 0.5 kg/m3; mass density (2130 kPa, x2 = 0): 715.2 ± 0.8 kg/m3; mass density (2130 kPa, x2 = 0.09303): 718.2 ± 0.8 kg/m3; mass density (2130 kPa, x2 = 0.2009): 722.2 ± 0.7 kg/m3; mass density (2130 kPa, x2 = 0.3051): 726.5 ± 0.7 kg/m3; mass density (2130 kPa, x2 = 0.417): 731.5 ± 0.7 kg/m3; mass density (2130 kPa, x2 = 0.512): 736.2 ± 0.7 kg/m3; mass density (2130 kPa, x2 = 0.5996): 741.4 ± 0.7 kg/m3; mass density (2130 kPa, x2 = 0.7052): 748.2 ± 0.6 kg/m3; mass density (2130 kPa, x2 = 0.7993): 755.6 ± 0.6 kg/m3; mass density (2130 kPa, x2 = 0.9039): 764.8 ± 0.6 kg/m3; mass density (4150 kPa, x2 = 0): 716.8 ± 0.9 kg/m3; mass density (4150 kPa, x2 = 0.09303): 719.8 ± 0.8 kg/m3; mass density (4150 kPa, x2 = 0.2009): 723.8 ± 0.8 kg/m3; mass density (4150 kPa, x2 = 0.3051): 728.1 ± 0.8 kg/m3; mass density (4150 kPa, x2 = 0.417): 733.1 ± 0.8 kg/m3; mass density (4150 kPa, x2 = 0.512): 737.8 ± 0.8 kg/m3; mass density (4150 kPa, x2 = 0.5996): 743.1 ± 0.7 kg/m3; mass density (4150 kPa, x2 = 0.7052): 749.9 ± 0.7 kg/m3; mass density (4150 kPa, x2 = 0.7993): 757.2 ± 0.7 kg/m3; mass density (4150 kPa, x2 = 0.9039): 766.5 ± 0.7 kg/m3; mass density (6180 kPa, x2 = 0): 718.4 ± 0.9 kg/m3; mass density (6180 kPa, x2 = 0.09303): 721.4 ± 0.9 kg/m3; mass density (6180 kPa, x2 = 0.2009): 725.4 ± 0.9 kg/m3; mass density (6180 kPa, x2 = 0.3051): 729.7 ± 0.9 kg/m3; mass density (6180 kPa, x2 = 0.417): 734.7 ± 0.9 kg/m3; mass density (6180 kPa, x2 = 0.512): 739.5 ± 0.8 kg/m3; mass density (6180 kPa, x2 = 0.5996): 744.7 ± 0.8 kg/m3; mass density (6180 kPa, x2 = 0.7052): 751.5 ± 0.8 kg/m3; mass density (6180 kPa, x2 = 0.7993): 758.8 ± 0.8 kg/m3; mass density (6180 kPa, x2 = 0.9039): 768.1 ± 0.7 kg/m3; mass density (8210 kPa, x2 = 0): 719.9 ± 1 kg/m3; mass density (8210 kPa, x2 = 0.09303): 722.9 ± 1 kg/m3; mass density (8210 kPa, x2 = 0.2009): 726.9 ± 1 kg/m3; mass density (8210 kPa, x2 = 0.3051): 731.2 ± 1 kg/m3; mass density (8210 kPa, x2 = 0.417): 736.3 ± 0.9 kg/m3; mass density (8210 kPa, x2 = 0.512): 741 ± 0.9 kg/m3; mass density (8210 kPa, x2 = 0.5996): 746.3 ± 0.9 kg/m3; mass density (8210 kPa, x2 = 0.7052): 753.1 ± 0.9 kg/m3; mass density (8210 kPa, x2 = 0.7993): 760.4 ± 0.8 kg/m3; mass density (8210 kPa, x2 = 0.9039): 769.7 ± 0.8 kg/m3; mass density (10230 kPa, x2 = 0): 721.4 ± 1.1 kg/m3; mass density (10230 kPa, x2 = 0.09303): 724.4 ± 1.1 kg/m3; mass density (10230 kPa, x2 = 0.2009): 728.5 ± 1.1 kg/m3; mass density (10230 kPa, x2 = 0.3051): 732.8 ± 1 kg/m3; mass density (10230 kPa, x2 = 0.417): 737.9 ± 1 kg/m3; mass density (10230 kPa, x2 = 0.512): 742.5 ± 1 kg/m3; mass density (10230 kPa, x2 = 0.5996): 747.9 ± 1 kg/m3; mass density (10230 kPa, x2 = 0.7052): 754.7 ± 0.9 kg/m3; mass density (10230 kPa, x2 = 0.7993): 762 ± 0.9 kg/m3; mass density (10230 kPa, x2 = 0.9039): 771.3 ± 0.9 kg/m3; mass density (11250 kPa, x2 = 0): 722.2 ± 1.2 kg/m3; mass density (11250 kPa, x2 = 0.09303): 725.2 ± 1.1 kg/m3; mass density (11250 kPa, x2 = 0.2009): 729.2 ± 1.1 kg/m3; mass density (11250 kPa, x2 = 0.3051): 733.5 ± 1.1 kg/m3; mass density (11250 kPa, x2 = 0.417): 738.6 ± 1.1 kg/m3; mass density (11250 kPa, x2 = 0.512): 743.3 ± 1 kg/m3; mass density (11250 kPa, x2 = 0.5996): 748.6 ± 1 kg/m3; mass density (11250 kPa, x2 = 0.7052): 755.5 ± 1 kg/m3; mass density (11250 kPa, x2 = 0.7993): 762.8 ± 0.9 kg/m3; mass density (11250 kPa, x2 = 0.9039): 772.1 ± 0.9 kg/m3; mass density (12260 kPa, x2 = 0): 722.9 ± 1.2 kg/m3; mass density (12260 kPa, x2 = 0.09303): 725.9 ± 1.2 kg/m3; mass density (12260 kPa, x2 = 0.2009): 730 ± 1.1 kg/m3; mass density (12260 kPa, x2 = 0.3051): 734.3 ± 1.1 kg/m3; mass density (12260 kPa, x2 = 0.417): 739.4 ± 1.1 kg/m3; mass density (12260 kPa, x2 = 0.512): 744.1 ± 1.1 kg/m3; mass density (12260 kPa, x2 = 0.5996): 749.4 ± 1 kg/m3; mass density (12260 kPa, x2 = 0.7052): 756.2 ± 1 kg/m3; mass density (12260 kPa, x2 = 0.7993): 763.5 ± 1 kg/m3; mass density (12260 kPa, x2 = 0.9039): 772.9 ± 0.9 kg/m3; mass density (14290 kPa, x2 = 0): 724.4 ± 1.3 kg/m3; mass density (14290 kPa, x2 = 0.09303): 727.4 ± 1.3 kg/m3; mass density (14290 kPa, x2 = 0.2009): 731.5 ± 1.2 kg/m3; mass density (14290 kPa, x2 = 0.3051): 735.8 ± 1.2 kg/m3; mass density (14290 kPa, x2 = 0.417): 740.9 ± 1.2 kg/m3; mass density (14290 kPa, x2 = 0.512): 745.5 ± 1.1 kg/m3; mass density (14290 kPa, x2 = 0.5996): 750.9 ± 1.1 kg/m3; mass density (14290 kPa, x2 = 0.7052): 757.8 ± 1.1 kg/m3; mass density (14290 kPa, x2 = 0.7993): 765.1 ± 1 kg/m3; mass density (14290 kPa, x2 = 0.9039): 774.4 ± 1 kg/m3; mass density (16310 kPa, x2 = 0): 725.8 ± 1.4 kg/m3; mass density (16310 kPa, x2 = 0.09303): 728.8 ± 1.3 kg/m3; mass density (16310 kPa, x2 = 0.2009): 732.9 ± 1.3 kg/m3; mass density (16310 kPa, x2 = 0.3051): 737.2 ± 1.3 kg/m3; mass density (16310 kPa, x2 = 0.417): 742.3 ± 1.2 kg/m3; mass density (16310 kPa, x2 = 0.512): 747 ± 1.2 kg/m3; mass density (16310 kPa, x2 = 0.5996): 752.3 ± 1.2 kg/m3; mass density (16310 kPa, x2 = 0.7052): 759.2 ± 1.1 kg/m3; mass density (16310 kPa, x2 = 0.7993): 766.5 ± 1.1 kg/m3; mass density (16310 kPa, x2 = 0.9039): 775.9 ± 1.1 kg/m3; mass density (18340 kPa, x2 = 0): 727.2 ± 1.4 kg/m3; mass density (18340 kPa, x2 = 0.09303): 730.2 ± 1.4 kg/m3; mass density (18340 kPa, x2 = 0.2009): 734.3 ± 1.4 kg/m3; mass density (18340 kPa, x2 = 0.3051): 738.6 ± 1.3 kg/m3; mass density (18340 kPa, x2 = 0.417): 743.7 ± 1.3 kg/m3; mass density (18340 kPa, x2 = 0.512): 748.4 ± 1.3 kg/m3; mass density (18340 kPa, x2 = 0.5996): 753.8 ± 1.3 kg/m3
